#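 Where inhibition never reached the appropriate level, the endpoint shown equals the highest concentration tested. Otherwise, values were interpolated linearly from a five-concentration, 48-hour dose response in 96-well plates. GI50 is the concentration that inhibits growth by half.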 The source made the active and inactive calls. Rule as the data show it: active = GI50 up to about 1.1 µM and inactive = higher.
# Key:
# Assay in all cases: growth of human tumour cells (NCI), 48 h
# UO-31 = system: UO-31
# UACC-62 = system: UACC-62
# SF-295 = system: SF-295
# EKVX = system: EKVX
# SN12C = system: SN12C
# SF-539 = system: SF-539
# U-251 = system: U-251
# NCI-H226 = system: NCI-H226
# UACC-257 = system: UACC-257
# SK-MEL-5 = system: SK-MEL-5
# HCT-15 = system: HCT-15
# HCT-116 = system: HCT-116
# ACHN = system: ACHN
# NCI-H460 = system: NCI-H460
# PC-3 = system: PC-3
# OVCAR-8 = system: OVCAR-8
# DU-145 = system: DU-145
# HT-29 = system: HT-29
# KM12 = system: KM12
SMILES,GI50 (UO-31),GI50 (UACC-62),GI50 (SF-295),GI50 (EKVX),GI50 (SN12C),GI50 (SF-539),GI50 (U-251),GI50 (NCI-H226),GI50 (UACC-257),GI50 (SK-MEL-5),GI50 (HCT-15) [µM],GI50 (HCT-116),GI50 (ACHN),GI50 (NCI-H460),GI50 (PC-3),GI50 (OVCAR-8),GI50 (DU-145),GI50 (HT-29),GI50 (KM12)
CCOC(=O)c1cc(I)c(-c2cc(C)no2)n1C,37.9 µM (inactive),59 µM (inactive),55.7 µM (inactive),27 µM (inactive),21.5 µM (inactive),> 100 µM (inactive),60.5 µM (inactive),> 100 µM (inactive),71.6 µM (inactive),33.1 µM (inactive),49.9,40.4 µM (inactive),48.3 µM (inactive),76.7 µM (inactive),38.5 µM (inactive),59 µM (inactive),89.9 µM (inactive),74.1 µM (inactive),21.1 µM (inactive)
COCc1cc2c(cc1/C=C/[N+](=O)[O-])OCO2,17 µM (inactive),17.9 µM (inactive),21.6 µM (inactive),17.8 µM (inactive),18.5 µM (inactive),20.7 µM (inactive),17.7 µM (inactive),19.8 µM (inactive),16.8 µM (inactive),19.4 µM (inactive),19.7,17.9 µM (inactive),17.1 µM (inactive),17.7 µM (inactive),12.1 µM (inactive),23 µM (inactive),19.4 µM (inactive),18.5 µM (inactive),20.8 µM (inactive)
C[N+](C)=C/C=C(\Cl)c1ccc2ccccc2c1,17 µM (inactive),15.1 µM (inactive),16.9 µM (inactive),24.5 µM (inactive),19.1 µM (inactive),25.1 µM (inactive),11.4 µM (inactive),17.3 µM (inactive),12.2 µM (inactive),18.1 µM (inactive),2.62,2.76 µM (inactive),14 µM (inactive),23.3 µM (inactive),19.8 µM (inactive),9.66 µM (inactive),14.9 µM (inactive),7.64 µM (inactive),15 µM (inactive)
OC(COc1ccc(Cl)cc1Cl)CN1CCCC1 (stereo not drawn),> 100 µM (inactive),21.7 µM (inactive),89.7 µM (inactive),21.1 µM (inactive),> 100 µM (inactive),> 100 µM (inactive),> 100 µM (inactive),88.7 µM (inactive),24.2 µM (inactive),27.9 µM (inactive),> 100,87.3 µM (inactive),> 100 µM (inactive),91.6 µM (inactive),> 100 µM (inactive),> 100 µM (inactive),> 100 µM (inactive),24.8 µM (inactive),> 100 µM (inactive)
S=c1cc(-c2ccc3c(c2)OCO3)s[nH]1,> 100 µM (inactive),83.2 µM (inactive),> 100 µM (inactive),> 100 µM (inactive),> 100 µM (inactive),> 100 µM (inactive),> 100 µM (inactive),58.5 µM (inactive),> 100 µM (inactive),> 100 µM (inactive),> 100,> 100 µM (inactive),> 100 µM (inactive),> 100 µM (inactive),> 100 µM (inactive),> 100 µM (inactive),> 100 µM (inactive),> 100 µM (inactive),> 100 µM (inactive)
O=C1c2ccccc2CC12Cc1ccc3c(c1C2)CCC3 (stereo not drawn),23.4 µM (inactive),20.3 µM (inactive),25.4 µM (inactive),16.9 µM (inactive),26.7 µM (inactive),27.5 µM (inactive),16.9 µM (inactive),22.8 µM (inactive),11.7 µM (inactive),15.5 µM (inactive),14.6,16.9 µM (inactive),22.6 µM (inactive),23.7 µM (inactive),26 µM (inactive),28.8 µM (inactive),34.6 µM (inactive),13.3 µM (inactive),24.4 µM (inactive)
COc1ccc(C[C@@H](C(=O)O[C@H](C)[C@H](NC(=O)[C@@H](CC(C)C)N(C)C(=O)C2CCCN2C(=O)[C@H](C)O)C(=O)N2CCCCNC(=O)[C@@H](C)C(=O)[C@H](C(C)C)OC(=O)C[C@H](O)[C@H]2CC(C)C)N(C)C(C)=O)cc1 (stereo partly drawn),36.1 µM (inactive),3.71 µM (inactive),10.1 µM (inactive),6.78 µM (inactive),15.2 µM (inactive),5.18 µM (inactive),3.1 µM (inactive),11.7 µM (inactive),17.5 µM (inactive),3.95 µM (inactive),16,4.76 µM (inactive),12.6 µM (inactive),9.82 µM (inactive),15.8 µM (inactive),18.9 µM (inactive),11.4 µM (inactive),3.27 µM (inactive),4.89 µM (inactive)

# — ChEMBL document CHEMBL1201862, “PubChem BioAssay data set” (2004)
